Values quoted from earlier work as cited in patent US20070110715A1, “Treatment of alzheimer's disease” (Ares Trading S.A., priority 2003, published 2007).

Tested on: Alzheimer's disease risk
Details: postmenopausal women using hormone replacement

In the case of estrogen, the “reduction in disease risk (AD)” value is listed as ~50%.
